# pIC50: −log10 of the molar value. Read-outs that look alike come from different tables or passages of the source.
# Molecular target: T1, human full-length MKNK1 (Homo sapiens, UniProt Q9BUB5, T385D)
# T1 construct: GST (N); purchased Carna Biosciences 02-145; host or cells: insect cells (baculovirus expression system)
# Test: MKNK1 kinase high ATP assay (TR-FRET)
# Format: biochemical
# Procedure, shortened: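 Compound was preincubated 15 min at 22° C. with MKNK1 in 50 mM HEPES pH 7.5, 5 mM MgCl2, 1.0 mM DTT, then the reaction ran 30 min at 22° C. with 2 mM ATP and 0.06 μM biotinylated peptide (final).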
# [1] = 2 mM ATP, after preincubation with MKNK1, read-out: MKNK1 IC50 (MKNK1 high ATP)
# T1 sequence (Q9BUB5 1-424 isoform Q9BUB5-2 T344D): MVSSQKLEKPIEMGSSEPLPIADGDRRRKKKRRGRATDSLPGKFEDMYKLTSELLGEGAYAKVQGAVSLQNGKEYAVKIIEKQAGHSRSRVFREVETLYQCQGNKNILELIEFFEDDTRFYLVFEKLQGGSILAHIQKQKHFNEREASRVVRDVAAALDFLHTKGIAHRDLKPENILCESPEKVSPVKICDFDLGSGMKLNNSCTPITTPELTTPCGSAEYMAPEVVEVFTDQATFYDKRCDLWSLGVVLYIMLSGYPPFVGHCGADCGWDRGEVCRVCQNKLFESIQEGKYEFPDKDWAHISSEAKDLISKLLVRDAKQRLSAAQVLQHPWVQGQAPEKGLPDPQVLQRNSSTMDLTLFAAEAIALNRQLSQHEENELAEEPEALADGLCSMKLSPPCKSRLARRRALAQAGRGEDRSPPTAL
SMILES,pIC50 [1],pIC50
"COC(=O)C1CCc2c(sc3ncnc(Nc4ccc5[nH]ncc5c4)c23)C1 (racemic) [Example 73, (RS)-Methyl 4-(1H-indazol-5-ylamino)-5,6,7,8-tetrahydro[1]benzothieno[2,3-d]pyrimidine-7-carboxylate]",8.05,–
"CCOc1cc2[nH]ncc2cc1Nc1ncnc2sc3c(c12)CCC(C(=O)N1CC=CC1)C3 (racemic) [Example 255, (RS)-2,5-Dihydro-1H-pyrrol-1-yl{4-[(6-ethoxy-1H-indazol-5-yl)amino]-5,6,7,8-tetrahydro[1]benzothieno[2,3-d]pyrimidin-7-yl}methanone]",9.52,–
"COc1cc2[nH]ncc2cc1Nc1ncnc2sc3c(c12)CCC(C(=O)N1CCC(=O)CC1)C3 (racemic) [Example 174, (RS)-1-({4-[(6-Methoxy-1H-indazol-5-yl)amino]-5,6,7,8-tetrahydro[1]benzothieno[2,3-d]pyrimidin-7-yl}carbonyl)piperidin-4-one]",–,9.22
"CNC(=O)C1CCc2c(sc3ncnc(Nc4ccc5[nH]ncc5c4)c23)C1 (stereo not shown) [Example 11, 4-(1H-indazol-5-ylamino)-N-methyl-5,6,7,8-tetrahydro[1]benzothieno[2,3-d]pyrimidine-7-carboxamide]",8.00,–
"CN(Cc1cnn(C)c1)C(=O)C1CCc2c(sc3ncnc(Nc4ccc5[nH]ncc5c4)c23)C1 (racemic) [Example 157, (RS)-4-(1H-indazol-5-ylamino)-N-methyl-N-[(1-methyl-1H-pyrazol-4-yl)methyl]-5,6,7,8-tetrahydro[1]benzothieno[2,3-d]pyrimidine-7-carboxamide]",7.42,–
"NC(=O)C1CCc2c(sc3ncnc(Nc4ccc5[nH]ncc5c4)c23)C1 (stereo not shown) [Example 3, 4-(1H-Indazol-5-ylamino)-5,6,7,8-tetrahydro[1]benzothieno[2,3-d]pyrimidine-7-carboxamide]",8.10,–
"COc1ccc(CNC(=O)C2CCc3c(sc4ncnc(Nc5ccc6[nH]ncc6c5)c34)C2)cc1 (stereo not shown) [Example 30, 4-(1H-Indazol-5-ylamino)-N-(4-methoxybenzyl)-5,6,7,8-tetrahydro[1] benzothieno [2,3-d]pyrimidine-7-carboxamide]",8.40,–
"COc1cc2[nH]ncc2cc1Nc1ncnc2sc3c(c12)CCC(C(=O)N1CC2(COC2)C1)C3 (racemic) [Example 250, (RS)-{4-[(6-Methoxy-1H-indazol-5-yl)amino]-5,6,7,8-tetrahydro[1]benzothieno[2,3-d]pyrimidin-7-yl}(2-oxa-6-azaspiro[3.3]hept-6-yl)methanone]",9.30,–
"NS(=O)(=O)c1ccc(CNC(=O)C2CCc3c(sc4ncnc(Nc5ccc6[nH]ncc6c5)c34)C2)cc1 (racemic) [Example 121, (RS)-4-(1H-indazol-5-ylamino)-N-(4-sulfamoylbenzyl)-5,6,7,8-tetrahydro[1]benzothieno[2,3-d]pyrimidine-7-carboxamide]",8.40,–
"CCOc1cc2[nH]ncc2cc1Nc1ncnc2sc3c(c12)CCC(C(=O)N1CCCCC1)C3 (racemic) [Example 209, (RS)-{4-[(6-Ethoxy-1H-indazol-5-yl)amino]-5,6,7,8-tetrahydro[1]benzothieno[2,3-d]pyrimidin-7-yl}(piperidin-1-yl)methanone]",9.15,–
"O=C(NC1(c2ccccc2)CC1)C1CCc2c(sc3ncnc(Nc4ccc5[nH]ncc5c4)c23)C1 (racemic) [Example 147, (RS)-4-(1H-indazol-5-ylamino)-N-(1-phenylcyclopropyl)-5,6,7,8-tetrahydro[1]benzothieno[2,3-d]pyrimidine-7-carboxamide]",8.43,–
"CCOc1cc2[nH]ncc2cc1Nc1ncnc2sc3c(c12)CCC(C(=O)N1CCN(CC2CC2)CC1)C3 (racemic) [Example 247, (RS)-[4-(Cyclopropylmethyl)piperazin-1-yl]{4-[(6-ethoxy-1H-indazol-5-yl)amino]-5,6,7,8-tetrahydro[1]benzothieno[2,3-d]pyrimidin-7-yl}methanone]",9.52,–
"CCN(CC)CCN(C)C(=O)C1CCc2c(sc3ncnc(Nc4ccc5[nH]ncc5c4)c23)C1 (racemic) [Example 95, (RS)-N-[2-(diethylamino)ethyl]-4-(1H-indazol-5-ylamino)-N-methyl-5,6,7,8-tetrahydro[1]benzothieno[2,3-d]pyrimidine-7-carboxamide]",7.69,–
"CC(C)CNC(=O)C1CCc2c(sc3ncnc(Nc4ccc5[nH]ncc5c4)c23)C1 (stereo not shown) [Example 39, 4-(1H-Indazol-5-ylamino)-N-(2-methylpropyl)-5,6,7,8-tetrahydro[1] benzothieno [2,3-d]pyrimidine-7-carboxamide]",8.22,–
"COc1cc2[nH]ncc2cc1Nc1ncnc2sc3c(c12)CCC(C(=O)N(CCO)CCO)C3 (racemic) [Example 234, (RS)—N, N-Bis(2-hydroxyethyl)-4-[(6-methoxy-1H-indazol-5-yl)amino]-5,6,7,8-tetrahydro[1]benzothieno[2,3-d]pyrimidine-7-carboxamide]",9.40,–
"CC(=O)N(C)C1CCN(C(=O)C2CCc3c(sc4ncnc(Nc5ccc6[nH]ncc6c5)c34)C2)C1 (racemic) [Example 198, (RS)-N-(1-{[4-(1H-indazol-5-ylamino)-5,6,7,8-tetrahydro[1]benzothieno[2,3-d]pyrimidin-7-yl]carbonyl}pyrrolidin-3-yl)-N-methylacetamide]",8.00,–
"CN(CCO)C(=O)C1CCc2c(sc3ncnc(Nc4ccc5[nH]ncc5c4)c23)C1 (stereo not shown) [Example 41, N-(2-Hydroxyethyl)-4-(1H-indazol-5-ylamino)-N-methyl-5,6,7,8-tetrahydro[1] benzothieno [2,3-d]pyrimidine-7-carboxamide]",8.10,–
"O=C(NCC1CC1)C1CCc2c(sc3ncnc(Nc4ccc5[nH]ncc5c4)c23)C1 (stereo not shown) [Example 7, N-(Cyclopropylmethyl)-4-(1H-indazol-5-ylamino)-5,6,7,8-tetrahydro[1]benzothieno[2,3-d]pyrimidine-7-carboxamide]",8.22,–
"CN(C)C(=O)N1CCN(C(=O)C2CCc3c(sc4ncnc(Nc5ccc6[nH]ncc6c5)c34)C2)CC1 (racemic) [Example 126, (RS)-4-{[4-(1H-indazol-5-ylamino)-5,6,7,8-tetrahydro[1]benzothieno[2,3-d]pyrimidin-7-yl]carbonyl}-N,N-dimethylpiperazine-1-carboxamide]",7.83,–
"CN1CCN(C(=O)C2CCc3c(sc4ncnc(Nc5ccc6[nH]ncc6c5)c34)C2)CC1 (stereo not shown) [Example 8, [4-(1H-Indazol-5-ylamino)-5,6,7,8-tetrahydro[1]benzothieno[2,3-d]pyrimidin-7-yl](4-methylpiperazin-1-yl)methanone]",7.96,–
"CCOc1cc2[nH]ncc2cc1Nc1ncnc2sc3c(c12)CCC(C(=O)N(CC)CCO)C3 (racemic) [Example 231, (RS)-4-[(6-Ethoxy-1H-indazol-5-yl)amino]-N-ethyl-N-(2-hydroxyethyl)-5,6,7,8-tetrahydro[1]benzothieno[2,3-d]pyrimidine-7-carboxamide]",9.52,–
"CCN(CC)C(=O)C1CCc2c(sc3ncnc(Nc4ccc5[nH]ncc5c4)c23)C1 (racemic) [Example 83, (RS)-N,N-diethyl-4-(1H-indazol-5-ylamino)-5,6,7,8-tetrahydro[1]benzothieno[2,3-d]pyrimidine-7-carboxamide]",7.83,–
